Paper PMC6455008, “Methylation at the C-3′ in D-Ring of Strigolactone Analogs Reduces Biological Activity in Root Parasitic Plants and Rice” (Frontiers in Plant Science, 2019)
Where two headings read alike, the source gives them in different places.

Assays:
ShHTL7 = target: T1, ShHTL7 (Striga hermonthica, UniProt A0A0M3PNA2); experiment: In vitro YLG hydrolysis competition assay, ShHTL7; format: biochemical
T1 sequence (A0A0M3PNA2 1-271): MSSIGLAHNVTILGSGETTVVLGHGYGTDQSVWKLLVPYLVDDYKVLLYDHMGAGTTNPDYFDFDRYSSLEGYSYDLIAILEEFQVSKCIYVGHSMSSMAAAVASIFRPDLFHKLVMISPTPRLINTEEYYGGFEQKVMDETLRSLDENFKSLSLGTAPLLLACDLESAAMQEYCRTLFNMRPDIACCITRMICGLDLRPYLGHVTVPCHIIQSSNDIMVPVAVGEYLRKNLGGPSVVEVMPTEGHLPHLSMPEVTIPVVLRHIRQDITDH
Protocol: (§1) Protein expression and purification of ShHTL7 and Oryza sativa D14 (OsD14) was carried out according to the procedure described earlier ([Jamil et al., 2018]). In vitro Yoshimulactone Green (YLG) hydrolysis assays ([Tsuchiya et al., 2015]) were carried out using 3.0 μM of protein ShHTL7 and OsD14 in a reaction buffer (1X PBS buffer, pH 7.3) with 0.1% DMSO at a 100-μl volume on a 96-well black plate (Greiner). For competitive assays, rac-GR24, AR8, MP13, and MP26 (at range between 0.01 and 50 μM) were co-incubated with 1.0 μM of YLG (Tokyo Chemical Industry Co. Ltd., product number E1238) for 60 min at room temperature. Fluorescent intensity was measured by spectraMax i5 (Molecular Devices) at excitation by 480 nm and detection by 520 nm. The change in fluorescence observed over the course of 1 h of YLG in buffer without protein was subtracted from the data collected in presence of protein. IC50 values were calculated by GraphPad (Prism 7).

P. aegyptiaca seeds = experiment: Parasitic seed germination bioassay, Phelipanche; format: in vivo, Phelipanche aegyptiaca
Protocol: (§4) Germination activity of SL analogs on S. hermonthica and P. aegyptiaca seeds was tested by following the procedure described before ([Jamil et al., 2012]). The preconditioned Striga and Phelipanche seeds were treated with 50 μl of each SL analog solution at a concentration range (10^−5–10^−12 M). GR24 and sterile MilliQ water were included as positive and negative controls, respectively. The treated seeds were allowed to germinate in the dark for 24 h at 30°C (for Striga) and for 1 week at 25°C (for Phelipanche). The germinated and non-germinated seeds were counted under a binocular microscope, and germination rate (in %) was calculated.
(§5) Collected data were analyzed statistically using statistical software package R (version 3.2.2).

S. hermonthica seeds = experiment: Parasitic seed germination bioassay, Striga; format: in vivo, Striga hermonthica; conditions: for EC50: Striga hermonthica
Protocol: as §4, §5

Arabidopsis seedlings [1] = experiment: Arabidopsis lateral root density assay; format: in vivo; conditions: Arabidopsis thaliana, compared to control seedlings
Protocol: (§2) The sterilized Arabidopsis seeds were grown in petri plates that were first kept at 4°C in darkness for 3 days. For hypocotyl study, the petri plates were exposed to continuous white light for 24 h, then transferred to continuous monochromatic red light (20 μmol m^−2 s^−1, 22°C) conditions for another 4 days. For lateral root density, the plates were vertically grown at 22°C in Percival incubator under long day conditions (16 h at 22°C/8 h at 16°C day/night, 60% relative humidity, 60–70 μmol m^−2 s^−1 white light) for 8 days. After scanning, the hypocotyl length and number of lateral roots were recorded using publicly available ImageJ software.^1

Arabidopsis seedlings [2] = experiment: Arabidopsis hypocotyl elongation assay; format: in vivo; conditions: Arabidopsis thaliana, compared to control seedlings, read-out: inhibition of hypocotyl growth (reduction in hypocotyl length)
Protocol: as §2

rice d10 mutant = experiment: Rice micro tillering bioassay (d10 mutant, hydroponic); format: in vivo
Protocol: Rice seeds (d10) were sterilized with 2.5% sodium hypochlorite for 15 min. After thorough washing with sterile MilliQ water, the seeds were kept in water for 2 days at 30°C in the dark for imbibition and pre-germination. The pre-germinated seeds were then transferred to moist filter paper in 90-mm petri plates and incubated at 30°C overnight. The plates with germinated seeds were then shifted in a growth cabinet with fluorescent white light (130–180 μM m^−2 s^−1) for 1 week. Seven days-old seedlings were moved to 50-ml falcon tubes (one seedling per tube) containing modified half-strength Hoagland nutrient solution in greenhouse. After 1 week, rice plants were treated with 2.5 μM of each SL analog. Mock and GR24 (2.5 μM) were included as control treatments. Six applications of each SL analog were done two times in a week. After 3 weeks of application, number of tillers per plant, plant height, and fresh biomass were measured at final harvest.

Striga seeds [3] = experiment: Stability of formulated SL analogs in aqueous solution under storage (Striga germination readout); format: physicochemical, Striga hermonthica; conditions: 1.0 μM
Protocol: (§3) The stability of formulated SL analogs was further tested in sand culture. About 1.5 ml of silver sand was added in each of 6 wells of 24-well plates. Then, 800 μl of formulated SL analogs (1.0 μM) was added in each of the six wells. The plates were sealed firmly with para-film, wrapped in aluminum foil, and placed at 30°C from day 1 to day 7. After 7 days, glass fiber discs containing preconditioned Striga seeds were placed on the top of each of the six wells and incubated in the dark at 30°C for 24 h. The germinated and non-germinated seeds were counted from each disc. In addition, the viability of formulated SL analogs was also tested in aqueous solution for 7 weeks at 30°C. About 800-μl aqueous solution of formulated SL analogs (1.0 μM) was added in a black Eppendorf tube weekly up to 6 weeks and incubated at 30°C. On the seventh week, about 50 μl of each analog was applied on a glass fiber disc containing preconditioned Striga seed and put again in the dark in sealed petri plates at 30°C for 24 h. Germinated and non-germinated seeds were counted from each disc.

Striga seeds [4] = experiment: Stability of formulated SL analogs in sand (Striga germination readout); format: physicochemical, Striga hermonthica; conditions: 1.0 μM, sand, 30°C, 7 days
Protocol: as §3

OsD14 = target: T2, OsD14 (Oryza sativa subsp. japonica, UniProt Q10QA5); experiment: In vitro YLG hydrolysis competition assay, OsD14; format: biochemical
T2 construct: made in house
T2 sequence (Q10QA5 1-318): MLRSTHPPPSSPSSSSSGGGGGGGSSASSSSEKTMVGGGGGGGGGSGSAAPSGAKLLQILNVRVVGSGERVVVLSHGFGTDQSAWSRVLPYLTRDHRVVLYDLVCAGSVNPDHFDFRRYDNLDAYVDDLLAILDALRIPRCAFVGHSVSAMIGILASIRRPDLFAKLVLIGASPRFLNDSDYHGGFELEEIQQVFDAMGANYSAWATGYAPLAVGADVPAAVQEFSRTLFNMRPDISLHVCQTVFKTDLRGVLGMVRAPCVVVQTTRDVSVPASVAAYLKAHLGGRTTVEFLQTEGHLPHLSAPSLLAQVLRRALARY
Protocol: as §1

Striga hermonthica = experiment: Striga emergence in pots under greenhouse conditions (suicidal germination, rice host); format: in vivo; conditions: formulated 1.0 μM
Protocol: About 10 mg of (ca 4,000) Striga seeds were thoroughly mixed in 2 L of sand and soil mixture (1:1) and added in 3-L perforated plastic pot containing 0.5 L of clean soil in the bottom. Striga seeds were first preconditioned by giving light irrigation and putting pots at 35°C in greenhouse for 10 days. Each pot was sprayed with 20-ml (1.0 μM) formulated SL analogs up to 10 days at 2-day intervals. A light irrigation was given next day of each application to move the compound to Striga seeds and they were allowed to germinate for suicidal death without host for another 1 week. Then, three rice seedlings (5 days old) were planted in the middle of each pot. The rice plants were grown under normal growth condition (30°C, 70% RH) for 8 weeks. Number of emerged Striga plants in each pot were counted.

## CC1=C[C@H](O/C=C2/C(=O)O[C@@H]3c4ccccc4C[C@H]23)OC1=O [GR24, reference compound]
ShHTL7
  IC50: 1640 ± 520 nM
P. aegyptiaca seeds; Phelipanche aegyptiaca, read-out: EC50 P. aegyptiaca seed germination, formulated
  EC50: 9.3 nM
P. aegyptiaca seeds; non-formulated, 1.0 μM, 1 week at 25°C
  P. aegyptiaca germination rate: 75%
S. hermonthica seeds; 1.0 μM, formulated and non-formulated, 24 h at 30°C
  Striga germination rate: 75%
S. hermonthica seeds; read-out: EC50 Striga seed germination, formulated
  EC50: 0.44 nM
S. hermonthica seeds; read-out: EC50 Striga seed germination, non-formulated
  EC50: 1.9 nM
Arabidopsis seedlings [1]
  inhibition at 1 µM: 53%
Arabidopsis seedlings [2]
  inhibition at 1 µM: 37%
Rice d10 mutant; Oryza sativa, read-out: tillering inhibition
  inhibition at 2.5 µM: 76%
Rice d10 mutant; SL-deficient d10 mutant, hydroponic, 2.5 μM, twice a week up to 3 weeks, untreated d10 six tillers
  number of tillers per plant: 1.4 tillers per plant
Rice d10 mutant; d10 mutant, 2.5 μM
  plant height compared to mock: significant increase in plant height
Striga seeds [3]; 30°C, 5 weeks
  Striga germination rate maintained for 5 weeks of storage: around 38%
Striga seeds [3]; 30°C, 6 weeks
  Striga germination rate after 6 weeks of storage: 11%
Striga seeds [3]; before storage
  Striga germination rate before storage: 76%
Striga seeds [4]
  Striga germination rate on seventh day of incubation in sand: around 20%
OsD14
  IC50: 1240 ± 90 nM
Striga hermonthica; 10 weeks after sowing
  decrease in Striga emergence compared to mock at 10 WAS: 82%
Striga hermonthica; mean ± SE, n=5, 5 weeks after sowing
  Striga hermonthica emergence, 5 WAS: 0.0±0.0
Striga hermonthica; mean ± SE, n=5, 6 weeks after sowing
  Striga hermonthica emergence, 6 WAS: 0.0±0.0
Striga hermonthica; mean ± SE, n=5, 7 weeks after sowing
  Striga hermonthica emergence, 7 WAS: 1.0±0.6
Striga hermonthica; mean ± SE, n=5, 8 weeks after sowing
  Striga hermonthica emergence, 8 WAS: 1.6±0.5
Striga hermonthica; mean ± SE, n=5, 9 weeks after sowing
  Striga hermonthica emergence, 9 WAS: 1.6±0.5
Striga hermonthica; mean ± SE, n=5, 10 weeks after sowing
  Striga hermonthica emergence, 10 WAS: 2.4±0.8
Striga hermonthica; negative = decrease, 8 WAS
  percent decrease in Striga hermonthica emergence over mock, 8 WAS: -85%
Striga hermonthica; negative = decrease, 9 WAS
  percent decrease in Striga hermonthica emergence over mock, 9 WAS: -84%
Striga hermonthica; negative = decrease, 10 WAS
  percent decrease in Striga hermonthica emergence over mock, 10 WAS: -82%
